Assay results: patent US12441704B2, “Compounds active towards nuclear receptors” (NUEVOLUTION A/S, priority 2019, dated 2025)

Each compound was assayed on IL-17A secretion in activated PBMCs (assay: IL-17A secretion in activated PBMCs). Conditions: Homo sapiens, PBMC, 48 h, human PBMCs stimulated with CD3/CD28 Dynabeads for 48 h; absolute IC50.
Format: cell-based, human
Description: Heparin-treated whole blood from healthy human volunteers was supplied from Hospital de Sant Pau (Barcelona) under the approval of the local ethical review board for human studies (Hospital de Sant Pau, Barcelona, Spain). Human peripheral blood mononuclear cells (PBMCs) were isolated from healthy human volunteers by density gradient centrifugation using the Ficoll-Paque (GE Healthcare). […] Cells were seeded in 384-well plate (DiscoverX), at 40,000 cells per well and cultured 2 h at 37° C. and 5% CO2.
Dose-response curves with compounds were prepared using a 5-fold serial dilution (10 concentrations) in 100% DMSO and further diluted 100-fold in culture medium. Compound solutions (5 μL) were added to the plate containing cells (final DMSO concentration of 0.1%) and incubated for 30 min. Then, cells were stimulated with CD3/CD28 Dynabeads (ThermoFisher, at a bead-to-cell ratio of 1:1) for 48 h at 37° C. and 5% CO2.
IL-17A levels in supernatant were determined by immunoassay using hIL17A QBeads (Intellicyt) and by fluorescence analysis in iQue flow cytometer following the manufacturer's instructions. Inhibition of IL-17A secretion was calculated using the following formula: inhibition=100*[1−[(x−mean basal condition)/(mean top condition−mean basal condition)]]. Activated DMSO-treated cells were used as top condition and activated GNE09461 (10 μM)-treated cells as basal condition.

Structure (SMILES)	IC50 [nM]
NC(=O)CN1CC[C@@H](CNc2ncnc(N(Cc3ccc(C(F)(F)F)cn3)C3CC3)c2F)[C@H](O)C1 (racemic) [Example A7-14, rac-2-((3R,4R)-4-(((6-(cyclopropyl((5-(trifluoromethyl)pyridin-2-yl)methyl)amino)-5-fluoropyrimidin-4-yl)amino)methyl)-3-hydroxypiperidin-1-yl)acetamide]	28
CCN(Cc1ccc(C(F)(F)F)cc1)c1ncnc(NC[C@H]2CCN(CC(N)=O)C[C@@H]2O)c1F (racemic) [Example A7-21, rac-2-((3R,4R)-4-(((6-(ethyl(4-(trifluoromethyl)benzyl)amino)-5-fluoropyrimidin-4-yl)amino)methyl)-3-hydroxypiperidin-1-yl)acetamide]	80
NC(=O)CN1CC[C@@H](CNc2ncnc(N(Cc3ccc(C(F)(F)F)nc3)C3CC3)c2F)[C@H](O)C1 (racemic) [Example A7-28, rac-2-((3R,4R)-4-(((6-(cyclopropyl((6-(trifluoromethyl)pyridin-3-yl)methyl)amino)-5-fluoropyrimidin-4-yl)amino)methyl)-3-hydroxypiperidin-1-yl)acetamide]	120
[2H]C([2H])([2H])N(Cc1ccc(C(F)(F)F)cc1)c1ncnc(NC[C@@H]2CCN(CC(N)=O)C[C@H]2O)c1F (racemic) [Example A7-60, rac-2-((3R,4R)-4-(((5-fluoro-6-((methyl-d3)(4-(trifluoromethyl)benzyl)amino)pyrimidin-4-yl)amino)methyl)-3-hydroxypiperidin-1-yl)acetamide]	87
NC(=O)CN1CC[C@@H](CNc2ncnc(N(Cc3ccc(-n4cccn4)cc3)C3CC3)c2F)[C@H](O)C1 (racemic) [Example A7-86, rac-2-((3R,4R)-4-(((6-((4-(1H-pyrazol-1-yl)benzyl)(cyclopropyl)amino)-5-fluoropyrimidin-4-yl)amino)methyl)-3-hydroxypiperidin-1-yl)acetamide]	55
CCN(Cc1ccc(C(F)(F)F)cc1)c1ncnc(NC[C@@H]2CCN(C(C)(C)C(N)=O)C[C@H]2O)c1F (relative stereo) [Example A7-57, rel-2-((3R,4R)-4-(((6-(ethyl(4-(trifluoromethyl)benzyl)amino)-5-fluoropyrimidin-4-yl)amino)methyl)-3-hydroxypiperidin-1-yl)-2-methylpropanamide]	39
NC(=O)CN1CC[C@@H](CNc2ncnc(N(Cc3ccc(C(F)(F)F)cc3)C3CC3)c2F)[C@H](O)C1 (stereo in doubt) [Example A7-01, rac-2-((3R,4R)-4-(((6-(Cyclopropyl(4-(trifluoromethyl)benzyl)amino)-5-fluoropyrimidin-4-yl)amino)methyl)-3-hydroxypiperidin-1-yl)acetamide]	8.7

Same assay, conditions: human PBMCs stimulated with CD3/CD28 Dynabeads for 48 h; absolute IC50

Structure (SMILES)	IC50 [nM]
Cn1cc(-c2ccc(CN(c3ncnc(NC[C@]4(O)CCN(CC(N)=O)C[C@H]4O)c3F)C3CC3)c(F)c2)cn1 (single isomer, unassigned) [Example D5-05-1]	23

Each compound was assayed against T1, RORγ ligand-binding domain fused to Gal4 (Homo sapiens, UniProt P51449) (assay: RORγ Reporter Assay (Gal4)). Conditions: HEK293 cells co-transfected with RORγ LBD-Gal4 and luciferase reporter; 24 h incubation; absolute EC50; read-out: EC50.
T1 construct: Gal4 (galactose-responsive transcription factor); expressed in transfected cells; host or cells: HEK293
T1 sequence (P51449 269-508 limits assumed): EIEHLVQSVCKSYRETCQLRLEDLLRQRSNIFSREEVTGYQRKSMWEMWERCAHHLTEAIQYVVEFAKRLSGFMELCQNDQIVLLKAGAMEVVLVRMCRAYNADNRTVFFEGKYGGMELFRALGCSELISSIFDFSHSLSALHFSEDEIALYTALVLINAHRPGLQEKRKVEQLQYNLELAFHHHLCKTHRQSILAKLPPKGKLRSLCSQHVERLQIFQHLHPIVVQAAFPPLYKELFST
Format: cell-based
Description: The HEK293 cell line is co-transfected transiently with two plasmids, one with the RORγ ligand-binding domain fused to galactose-responsive transcription factor (Gal4), and the other with the luciferase reporter gene and Gal binding sites (UAS). This construction allows to determine the RORγ activity in a cellular system through the measurement of luminescence.
A suspension of RORγ reporter cells was dispensed into plates and cultured 2 h at 37° C. and 5% CO2. Media formulation consisted in DMEM/F-12 medium (Gibco) supplemented with 10% heat inactivated FBS (Sigma-Aldrich), non-essential aminoacids (Sigma-Aldrich), 2 mM Glutamax (Gibco) and 100 U/mL penicillin (Sigma-Aldrich). Dose-response curves with compounds were prepared in 100% DMSO and further diluted 100-fold in culture medium. Compound solutions were added to the plate containing cells (final DMSO concentration of 0.1%) and incubated for 24 h at 37° C. and 5% CO2. Luciferase detection reagent was added to each well, and relative light units (RLUs) were quantified from each assay well using a plate reading luminometer.
Values of average RLU±S.D. were computed for all treatment sets, followed by the calculations of percent-reduction of RORγ activity in response to respective test compound. The following formula was used: activity=100*[1−[x test compound/average vehicle] where the theoretical minimum reduction (0% reduction).

Structure (SMILES)	EC50 [nM]
NC(=O)CN1CC[C@@H](CNc2ncnc(N(Cc3ccc(C(F)(F)F)nc3)C3CC3)c2F)[C@H](O)C1 (racemic) [Example A7-28, rac-2-((3R,4R)-4-(((6-(cyclopropyl((6-(trifluoromethyl)pyridin-3-yl)methyl)amino)-5-fluoropyrimidin-4-yl)amino)methyl)-3-hydroxypiperidin-1-yl)acetamide]	20.5
N#Cc1cccc(CN(c2ncnc(NCC3CCN(CC(N)=O)CC3)c2F)C2CC2)c1 [Example A7-36, 2-(4-(((6-((3-cyanobenzyl)(cyclopropyl)amino)-5-fluoropyrimidin-4-yl)amino)methyl)piperidin-1-yl)acetamide]	860
NC(=O)CN1CCC(CNc2ncnc(N(Cc3ccc4c(c3)OCC(=O)N4)C3CC3)c2F)CC1 [Example A7-37]	670
Cc1ccc(C)c(CN(c2ncnc(NCC3CCN(CC(N)=O)CC3)c2F)C2CC2)c1 [Example A7-47, 2-(4-(((6-(cyclopropyl(2,5-dimethylbenzyl)amino)-5-fluoropyrimidin-4-yl)amino)methyl)piperidin-1-yl)acetamide]	> 1000
NC(=O)C(CO)N1CCC(CNc2ncnc(N(Cc3ccc(C(F)(F)F)cc3)C3CC3)c2F)CC1 (centres unmarked) [Example A7-64, 2-(4-(((6-(cyclopropyl(4-(trifluoromethyl)benzyl)amino)-5-fluoropyrimidin-4-yl)amino)methyl)piperidin-1-yl)-3-hydroxypropanamide]	73
Cn1cnnc1C1(CNc2ncnc(N(Cc3ccc(C(F)(F)F)cc3)C3CC3)c2F)CCN(CC(N)=O)CC1 [Example A7-83, 2-(4-(((6-(Cyclopropyl(4-(trifluoromethyl)benzyl)amino)-5-fluoropyrimidin-4-yl)amino)methyl)-4-(4-methyl-4H-1,2,4-triazol-3-yl)piperidin-1-yl)acetamide]	> 1000
NC(=O)CN1CCC(CNc2ncnc(N(Cc3ccc(C(F)(F)F)cc3)C3CC3)c2F)(c2ncc[nH]2)CC1 [Example A7-84, 2-(4-(((6-(Cyclopropyl(4-(trifluoromethyl)benzyl)amino)-5-fluoropyrimidin-4-yl)amino)methyl)-4-(1H-imidazol-2-yl)piperidin-1-yl)acetamide]	301
NC(=O)CN1CCC(N)(CNc2ncnc(N(Cc3ccc(C(F)(F)F)cc3)C3CC3)c2F)CC1 [Example E6-1, 2-(4-Amino-4-(((6-(cyclopropyl(4-(trifluoromethyl)benzyl)amino)-5-fluoropyrimidin-4-yl)amino)methyl)piperidin-1-yl)acetamide]	150

Second part, the compound after the results:

EC50 [nM]	Structure (SMILES)
15	NC(=O)CN1CC[C@@H](CNc2ncnc(N(Cc3ccc(C(F)(F)F)cn3)C3CC3)c2F)[C@H](O)C1 (racemic) [Example A7-14, rac-2-((3R,4R)-4-(((6-(cyclopropyl((5-(trifluoromethyl)pyridin-2-yl)methyl)amino)-5-fluoropyrimidin-4-yl)amino)methyl)-3-hydroxypiperidin-1-yl)acetamide]
12	CCN(Cc1ccc(C(F)(F)F)cc1)c1ncnc(NC[C@H]2CCN(CC(N)=O)C[C@@H]2O)c1F (racemic) [Example A7-21, rac-2-((3R,4R)-4-(((6-(ethyl(4-(trifluoromethyl)benzyl)amino)-5-fluoropyrimidin-4-yl)amino)methyl)-3-hydroxypiperidin-1-yl)acetamide]
310	NC(=O)CN1CCC(CNc2ncnc(N(Cc3ccc(C(F)(F)F)cn3)C3CC3)c2F)CC1 [Example A7-35, 2-(4-(((6-(cyclopropyl((5-(trifluoromethyl)pyridin-2-yl)methyl)amino)-5-fluoropyrimidin-4-yl)amino)methyl)piperidin-1-yl)acetamide]
590	NC(=O)CN1CCC(CNc2ncnc(N(Cc3cccc(-n4cncn4)c3)C3CC3)c2F)CC1 [Example A7-38, 2-(4-(((6-((3-(1H-1,2,4-triazol-1-yl)benzyl)(cyclopropyl)amino)-5-fluoropyrimidin-4-yl)amino)methyl)piperidin-1-yl)acetamide]
37	NC(=O)CN1CCC(CNc2ncnc(N(Cc3ccc(C(F)(F)F)cc3)C3CC3)c2F)CC1 [Example A7-39, 2-(4-(((6-(cyclopropyl(4-(trifluoromethyl)benzyl)amino)-5-fluoropyrimidin-4-yl)amino)methyl)piperidin-1-yl)acetamide]
> 1000	Cc1cc(CN(c2ncnc(NCC3CCN(CC(N)=O)CC3)c2F)C2CC2)c(C)cc1Cl [Example A7-46, 2-(4-(((6-((4-chloro-2,5-dimethylbenzyl)(cyclopropyl)amino)-5-fluoropyrimidin-4-yl)amino)methyl)piperidin-1-yl)acetamide]
17	CC1CC(CNc2ncnc(N(Cc3ccc(C(F)(F)F)cc3)C3CC3)c2F)CCN1CC(N)=O (centres unmarked) [Example A7-48]
> 1000	Cc1cc(CN(c2ncnc(NCC3CCN(CC(N)=O)CC3)c2F)C2CC2)cc(C)c1Cl [Example A7-53, 2-(4-(((6-((4-chloro-3,5-dimethylbenzyl)(cyclopropyl)amino)-5-fluoropyrimidin-4-yl)amino)methyl)piperidin-1-yl)acetamide]
53	NC(=O)CN1CCC(CNc2ncnc(N(Cc3ccc(C(F)(F)F)cc3)C3CC3)c2F)(c2nc[nH]n2)CC1 [Example A7-80, 2-(4-(((6-(Cyclopropyl(4-(trifluoromethyl)benzyl)amino)-5-fluoropyrimidin-4-yl)amino)methyl)-4-(1H-1,2,4-triazol-3-yl)piperidin-1-yl)acetamide]
181	NC(=O)CN1CCC(C(CO)Nc2ncnc(N(Cc3ccc(C(F)(F)F)cc3)C3CC3)c2F)CC1 (centres unmarked) [Example A7-87, 2-(4-(1-((6-(cyclopropyl(4-(trifluoromethyl)benzyl)amino)-5-fluoropyrimidin-4-yl)amino)-2-hydroxyethyl)piperidin-1-yl)acetamide]
